Values joined by “and” are separate entries in the source; they are usually repeats but may differ in a detail not shown here. Equal entries are not always repeated.
Test system: NCI-H358 and MIA PaCa-2 cells expressing RTK constructs
Test: pERK (MSD) in NCI-H358 and MIA PaCa-2 cells expressing exogenous RTK or RTK fusion constructs
Type: cell-based, human

CCn1c(-c2cc(N3CCN(C4CC4)CC3)cnc2[C@H](C)OC)c2c3cc(ccc31)-c1csc(n1)C[C@H](NC(=O)[C@H]1[C@@H]3COC[C@@H]31)C(=O)N1CCC[C@H](N1)C(=O)OCC(C)(C)C2 [RMC-7977]
pERK inhibition in MiaPaCa2 RTK fusion overexpression cells treated with RMC-7977 (EML4-ALK, RMC-7977 11.111 nM): 5.91 and 5.92 and 5.79
pERK inhibition in MiaPaCa2 RTK fusion overexpression cells treated with RMC-7977 (EML4-ALK, RMC-7977 100.000 nM): 3.46 and 3.15 and 3.05
pERK in NCI-H358 RTK overexpression cells treated with RMC-7977 (FGFR2, RMC-7977 0.0152 nM): 105.65
pERK inhibition in H358 RTK overexpression cells (FGFR2, RMC-7977 0.0152 nM): 106.96
pERK in NCI-H358 RTK overexpression cells treated with RMC-7977 (FGFR2, RMC-7977 0.0457 nM): 88.22
pERK inhibition in H358 RTK overexpression cells (FGFR2, RMC-7977 0.0457 nM): 111.13
pERK in NCI-H358 RTK overexpression cells treated with RMC-7977 (FGFR2, RMC-7977 0.41 nM): 48.78
pERK inhibition in H358 RTK overexpression cells (FGFR2, RMC-7977 0.41 nM): 65.30
pERK inhibition in H358 RTK overexpression cells (FGFR2, RMC-7977 3.70 nM): 17.67
pERK inhibition in H358 RTK overexpression cells (FGFR2, RMC-7977 11.11 nM): 6.99
pERK in NCI-H358 RTK overexpression cells treated with RMC-7977 (FGFR2, RMC-7977 33.33 nM): 3.56
pERK inhibition in H358 RTK overexpression cells (FGFR2, RMC-7977 33.33 nM): 3.76
pERK in NCI-H358 RTK overexpression cells treated with RMC-7977 (FGFR2, RMC-7977 100.00 nM): 2.34
pERK inhibition in H358 RTK overexpression cells (FGFR2, RMC-7977 100.00 nM): 2.57
pERK in NCI-H358 RTK overexpression cells treated with RMC-7977 (FGFR2, RMC-7977 300.00 nM): 1.90
pERK inhibition in H358 RTK overexpression cells (FGFR2, RMC-7977 300.00 nM): 2.56
pERK inhibition in MiaPaCa2 RTK fusion overexpression cells treated with RMC-7977 (FGFR3-TACC3, RMC-7977 0.412 nM): 52.00 and 53.38 and 52.06 and 52.75
pERK inhibition in MiaPaCa2 RTK fusion overexpression cells treated with RMC-7977 (FGFR3-TACC3, RMC-7977 1.235 nM): 23.92 and 29.24 and 28.51 and 28.89
pERK inhibition in MiaPaCa2 RTK fusion overexpression cells treated with RMC-7977 (FGFR3-TACC3, RMC-7977 3.704 nM): 15.09 and 13.49 and 14.38 and 14.06
pERK inhibition in MiaPaCa2 RTK fusion overexpression cells treated with RMC-7977 (FGFR3-TACC3, RMC-7977 11.111 nM): 7.76 and 6.95 and 7.39 and 7.30
pERK inhibition in MiaPaCa2 RTK fusion overexpression cells treated with RMC-7977 (FGFR3-TACC3, RMC-7977 33.333 nM): 4.29 and 4.25 and 4.22
pERK inhibition in MiaPaCa2 RTK fusion overexpression cells treated with RMC-7977 (FGFR3-TACC3, RMC-7977 100.000 nM): 3.04 and 3.39 and 3.61 and 3.12
pERK in NCI-H358 RTK overexpression cells treated with RMC-7977 (GFP, RMC-7977 0.0152 nM): 115.00 and 107.70
pERK inhibition in H358 RTK overexpression cells (GFP, RMC-7977 0.0152 nM): 88.72 and 97.32
pERK in NCI-H358 RTK overexpression cells treated with RMC-7977 (GFP, RMC-7977 0.0457 nM): 126.84 and 117.32
pERK inhibition in H358 RTK overexpression cells (GFP, RMC-7977 0.0457 nM): 102.39 and 94.00
pERK in NCI-H358 RTK overexpression cells treated with RMC-7977 (GFP, RMC-7977 0.41 nM): 51.59 and 78.61
pERK inhibition in H358 RTK overexpression cells (GFP, RMC-7977 0.41 nM): 66.43 and 65.41
pERK inhibition in MiaPaCa2 RTK fusion overexpression cells treated with RMC-7977 (GFP, RMC-7977 0.412 nM): 27.42 and 30.00 and 31.02 and 30.72
pERK inhibition in MiaPaCa2 RTK fusion overexpression cells treated with RMC-7977 (GFP, RMC-7977 1.235 nM): 9.02 and 12.77 and 12.06 and 11.06
pERK in NCI-H358 RTK overexpression cells treated with RMC-7977 (GFP, RMC-7977 11.11 nM): 4.80
pERK inhibition in H358 RTK overexpression cells (GFP, RMC-7977 11.11 nM): 7.16 and 4.70
pERK inhibition in MiaPaCa2 RTK fusion overexpression cells treated with RMC-7977 (GFP, RMC-7977 11.111 nM): 3.33 and 3.53 and 3.95 and 3.59
pERK in NCI-H358 RTK overexpression cells treated with RMC-7977 (GFP, RMC-7977 33.33 nM): 2.56 and 2.82
pERK inhibition in H358 RTK overexpression cells (GFP, RMC-7977 33.33 nM): 3.17 and 2.48
pERK inhibition in MiaPaCa2 RTK fusion overexpression cells treated with RMC-7977 (GFP, RMC-7977 33.333 nM): 3.43 and 3.24 and 2.97 and 2.93
pERK in NCI-H358 RTK overexpression cells treated with RMC-7977 (GFP, RMC-7977 100.00 nM): 2.07 and 1.93
pERK inhibition in H358 RTK overexpression cells (GFP, RMC-7977 100.00 nM): 2.60 and 2.58
pERK inhibition in MiaPaCa2 RTK fusion overexpression cells treated with RMC-7977 (GFP, RMC-7977 100.000 nM): 3.01 and 2.87 and 2.65 and 2.84
pERK in NCI-H358 RTK overexpression cells treated with RMC-7977 (GFP, RMC-7977 300.00 nM): 2.17 and 2.42
pERK inhibition in H358 RTK overexpression cells (GFP, RMC-7977 300.00 nM): 2.46 and 2.59
pERK in NCI-H358 RTK overexpression cells treated with RMC-7977 (HER2, RMC-7977 0.0152 nM): 111.00 and 102.34
pERK inhibition in H358 RTK overexpression cells (HER2, RMC-7977 0.0152 nM): 107.19 and 89.20
pERK in NCI-H358 RTK overexpression cells treated with RMC-7977 (HER2, RMC-7977 0.0457 nM): 106.57 and 84.47
pERK inhibition in H358 RTK overexpression cells (HER2, RMC-7977 0.0457 nM): 86.86 and 85.86
pERK in NCI-H358 RTK overexpression cells treated with RMC-7977 (HER2, RMC-7977 0.41 nM): 72.44 and 63.75
pERK inhibition in H358 RTK overexpression cells (HER2, RMC-7977 0.41 nM): 63.34 and 59.01
pERK in NCI-H358 RTK overexpression cells treated with RMC-7977 (HER2, RMC-7977 11.11 nM): 2.66
pERK inhibition in H358 RTK overexpression cells (HER2, RMC-7977 11.11 nM): 6.01 and 6.18
pERK in NCI-H358 RTK overexpression cells treated with RMC-7977 (HER2, RMC-7977 33.33 nM): 1.70 and 1.64
pERK inhibition in H358 RTK overexpression cells (HER2, RMC-7977 33.33 nM): 5.40 and 5.32
pERK in NCI-H358 RTK overexpression cells treated with RMC-7977 (HER2, RMC-7977 100.00 nM): 1.42 and 1.69
pERK in NCI-H358 RTK overexpression cells treated with RMC-7977 (HER2, RMC-7977 300.00 nM): 2.02 and 1.78
pERK in NCI-H358 RTK overexpression cells treated with RMC-7977 (RET M918T, RMC-7977 0.0152 nM): 93.23 and 141.77
pERK inhibition in H358 RTK overexpression cells (RET M918T, RMC-7977 0.0152 nM): 96.21 and 105.26
pERK in NCI-H358 RTK overexpression cells treated with RMC-7977 (RET M918T, RMC-7977 0.0457 nM): 91.92 and 151.65
pERK inhibition in H358 RTK overexpression cells (RET M918T, RMC-7977 0.0457 nM): 91.15 and 96.00
pERK in NCI-H358 RTK overexpression cells treated with RMC-7977 (RET M918T, RMC-7977 0.41 nM): 60.67 and 71.79
pERK inhibition in H358 RTK overexpression cells (RET M918T, RMC-7977 0.41 nM): 61.29 and 64.34
pERK inhibition in H358 RTK overexpression cells (RET M918T, RMC-7977 3.70 nM): 20.58 and 17.35
pERK in NCI-H358 RTK overexpression cells treated with RMC-7977 (RET M918T, RMC-7977 11.11 nM): 4.81 and 4.27
pERK inhibition in H358 RTK overexpression cells (RET M918T, RMC-7977 11.11 nM): 7.08 and 6.42
pERK in NCI-H358 RTK overexpression cells treated with RMC-7977 (RET M918T, RMC-7977 33.33 nM): 2.17 and 2.02
pERK inhibition in H358 RTK overexpression cells (RET M918T, RMC-7977 33.33 nM): 3.13 and 3.07
pERK in NCI-H358 RTK overexpression cells treated with RMC-7977 (RET M918T, RMC-7977 100.00 nM): 1.44 and 1.22
pERK inhibition in H358 RTK overexpression cells (RET M918T, RMC-7977 100.00 nM): 1.99 and 2.21
pERK in NCI-H358 RTK overexpression cells treated with RMC-7977 (RET M918T, RMC-7977 300.00 nM): 1.32
pERK inhibition in H358 RTK overexpression cells (RET M918T, RMC-7977 300.00 nM): 2.03 and 1.88

— paper PMC11111408, “Concurrent inhibition of oncogenic and wild-type RAS-GTP for cancer therapy” (Nature, 2024)
